Where “and” joins values, the source holds several entries; their conditions need not be identical. Identical values can stand only once.
Legend:
[1] = system: Zika virus; assay: EC50 is reported via analysis of immunofluorescence staining. The assay has been performed by Icahn School of Medicine at Mount Sinai.; type: functional, organism-based, Chlorocebus sabaeus, VeroE6/TMPRSS2; conditions: Zika virus; for EC90: P-gp concentration 2 uM, P-gp inhibitor Elacidar
[2] = system: dengue virus type 2; assay: Functional immunofluorescence assay to measure dose dependent changes in antiviral-drug inhibitory efficacy against Dengue virus type 2 Thailand/16681/84 in Vero E6/TMPRSS2 cells (cotreated with P-gp inhibitor, Elacridar). Cells are treated with antiviral candidates that are serially diluted, following infection, cells are fixed. EC50 is reported via analysis of immunofluorescence staining. The assay has been performed by Icahn School of Medicine at Mount Sinai.; type: organism-based, Chlorocebus sabaeus, VeroE6/TMPRSS2; conditions: Dengue virus, VeroE6/TMPRSS2
[3] = system: Zika virus; assay: (§1) Functional CPE-based assay to measure dose dependent changes in antiviral-drug inhibitory efficacy against Zika virus MR766 in Vero E6 miRFP670 cells. Cells are treated with antiviral candidates that are serially diluted. EC50 is reported via analysis of MTS assay as a readout of CPE. The assay has been performed by KU Leuven.; type: organism-based, Chlorocebus sabaeus, Vero C1008
[4] = system: dengue virus type 2; assay: Functional assay to measure dose dependent changes in antiviral-drug inhibitory efficacy against Dengue virus type 2 New Guinea C in Vero E6 miRFP670 cells (cotreated with P-gp inhibitor, CP100356). Cells are treated with antiviral candidates that are serially diluted, following infection, cells are fixed. EC50 is reported via analysis of fluorescence intensity using high-content imager. The …; type: organism-based, Chlorocebus sabaeus, Vero C1008; conditions: for EC90: P-gp concentration 500 nM, P-gp inhibitor CP100356
[5] = system: Zika virus; assay: as §1, with “cells (cotreated with P-gp inhibitor, CP100356).” for “cells.”; type: organism-based, Chlorocebus sabaeus, Vero C1008; conditions: for EC90: Baseline response 0 %, Maximum response 100 %, P-gp concentration 500 nM, P-gp inhibitor CP100356

## O=C(Nc1ccc2c(c1)CNCCC2)c1cc(Cl)cc2[nH]ncc12
[1]; VeroE6/TMPRSS2
  EC50: 47.6 µM
[1]; VeroE6/TMPRSS2, Baseline response 0 %, Hill slope -16.818, Maximum measured 150.619 %, Maximum response 100 %, Minimum measured 30.484 %, R squared 0.241
  EC90: > 50 µM
[2]
  EC50: 26 µM
  EC90: 45 µM
[3]; Zika virus, Vero C1008
  EC50: > 50 µM
[3]; Zika virus, Vero C1008, Baseline response 0 %, Hill slope 0.723, Maximum measured 1.937 %, Maximum response 100 %, Minimum measured -1.308 %, R squared 0.05
  EC90: > 50 µM
[3]; Zika virus, Vero C1008, Maximum measured 5.01 %, Minimum measured -5.78 %
  EC90: > 50 µM
[4]; Dengue virus, Vero C1008
  EC50: > 1.56 µM
[4]; Dengue virus, Vero C1008, Baseline response 0 %, Hill slope 9.827, Maximum measured 112.729 %, Maximum response 100 %, Minimum measured 86.907 %, R squared 0.124
  EC90: > 1.56 µM

## CCc1nc2c(C(=O)Nc3ccc4c(c3)CNC4)cc(Br)cc2[nH]1
[1]; VeroE6/TMPRSS2
  EC50: > 5.56 µM
[1]; VeroE6/TMPRSS2, Baseline response 0 %, Hill slope 0.058, Maximum measured 88.326 %, Maximum response 100 %, Minimum measured 53.216 %, R squared 0.024
  EC90: > 5.56 µM
[3]; Zika virus, Vero C1008
  EC50: > 50 µM
[3]; Zika virus, Vero C1008, Baseline response 0 %, Hill slope 0.303, Maximum measured 9.479 %, Maximum response 100 %, Minimum measured 2.16 %, R squared 0.852
  EC90: > 50 µM
[4]; Dengue virus, Vero C1008
  EC50: > 50 µM
[4]; Dengue virus, Vero C1008, Maximum measured 122.691 %, Minimum measured 98.084 %
  EC90: > 50 µM

## O=C1Cc2c(cccc2C(=O)Nc2ccc3c(c2)CNC3)N1
[3]; Zika virus, Vero C1008
  EC50: > 50 µM
[3]; Zika virus, Vero C1008, Baseline response 0 %, Hill slope 0.284, Maximum measured 8.076 %, Maximum response 100 %, Minimum measured -0.771 %, R squared 0.143
  EC90: > 50 µM
[5]; Zika virus, Vero C1008
  EC50: > 50 µM
[5]; Zika virus, Vero C1008, Hill slope 0.131, Maximum measured 3.439 %, Minimum measured 0.392 %, R squared 0.059
  EC90: > 50 µM
[4]; Dengue virus, Vero C1008
  EC50: > 50 µM
[4]; Dengue virus, Vero C1008, Maximum measured 146.808 %, Minimum measured 90.834 %
  EC90: > 50 µM

## N#C[C@H](Nc1ccc2c(c1)CNC2)c1cc(Cl)cc2[nH]ncc12
[1]; VeroE6/TMPRSS2
  EC50: 7.2 µM
[1]; VeroE6/TMPRSS2, Baseline response 0 %, Hill slope -1.174, Maximum measured 85.278 %, Maximum response 50 %, Minimum measured 14.695 %, R squared 0.497
  EC90: > 16.7 µM
[3]; Zika virus, Vero C1008
  EC50: 42.5 µM
[3]; Zika virus, Vero C1008, Baseline response 0 %, Hill slope 4.778, Maximum measured 68.413 %, Maximum response 100 %, Minimum measured -0.525 %, R squared 0.993
  EC90: > 50 µM
[3]; Zika virus, Vero C1008, Maximum measured -1.389 %, Minimum measured -3.372 %
  EC90: > 50 µM
[3]; vero c1008
  EC50: > 50 µM
[4]; Dengue virus, Vero C1008
  EC50: > 50 µM
[4]; Dengue virus, Vero C1008, Maximum measured 117.716 %, Minimum measured 103.927 %
  EC90: > 50 µM
[4]; Dengue virus, Vero C1008, Maximum measured 161.231 %, Minimum measured 110.618 %
  EC90: > 50 µM

## CC(C)NC(=O)[C@H](Nc1ccc2c(c1)CNC2)c1cc(Cl)cc2[nH]ncc12
[1]; VeroE6/TMPRSS2
  EC50: > 16.7 µM
[1]; VeroE6/TMPRSS2, Maximum measured 103.391 %, Minimum measured 35.108 %
  EC90: > 16.7 µM
[3]; Zika virus, Vero C1008
  EC50: > 50 µM
[3]; Zika virus, Vero C1008, Maximum measured -0.394 %, Minimum measured -3.218 %
  EC90: > 50 µM
[5]; Hill slope 0.274, Maximum measured 19.104 %, Minimum measured -8.849 %, R squared 0.058
  EC90: > 50 µM
[5]; Hill slope 0.987, Maximum measured 78.474 %, Minimum measured 2.604 %, R squared 0.941
  EC90: > 50 µM
[5]; Zika virus, Vero C1008, Hill slope 2.014, Maximum measured 45.209 %, Minimum measured -1.87 %, R squared 0.776
  EC90: > 50 µM
[5]; vero c1008
  EC50: > 50 µM and 5.7 µM
[4]; Dengue virus, Vero C1008, Maximum measured 125.719 %, Minimum measured 102.313 %
  EC90: > 50 µM
[4]; Dengue virus, Vero C1008, Maximum measured 136.006 %, Minimum measured 106.773 %
  EC90: > 50 µM
[4]; Dengue virus, Vero C1008, Maximum measured 137.073 %, Minimum measured 93.467 %
  EC90: > 50 µM
[4]; Dengue virus, Vero C1008, Baseline response 0 %, Hill slope 0.455, Maximum measured 96.007 %, Maximum response 100 %, Minimum measured 82.569 %, R squared 0.098
  EC90: > 6.25 µM
[4]; vero c1008
  EC50: > 50 µM

## O=C(Nc1cc(Cl)cc(-c2ccc3cc(C(=O)O)[nH]c3c2)c1)OCc1ccccc1
[3]; Zika virus, Vero C1008
  EC50: > 50 µM
[3]; Zika virus, Vero C1008, Maximum measured -0.377 %, Minimum measured -2.566 %
  EC90: > 50 µM
[5]; Zika virus, Vero C1008
  EC50: > 50 µM
[5]; Zika virus, Vero C1008, Hill slope 0.219, Maximum measured 11.412 %, Minimum measured -1.306 %, R squared 0.087
  EC90: > 50 µM
[4]; Dengue virus, Vero C1008
  EC50: 27.6 µM
[4]; Dengue virus, Vero C1008, Baseline response 0 %, Hill slope -2.588, Maximum measured 127.292 %, Maximum response 100 %, Minimum measured 18.339 %, R squared 0.622
  EC90: > 50 µM

Reference: ChEMBL document CHEMBL5661943, “ASAP - In vitro antiviral effect” (2024)
